Results published in patent publication US20220257698A1, “ANGIOTENSIN TYPE 2 (AT2) RECEPTOR AGONISTS FOR USE IN THE TREATMENT OF CANCER” (LANTHIOPEP B.V., priority 2019, published 2022).

What was measured:
[1] = test system: MaCa4151 breast cancer PDX model; test: KcAng(1-7) on growth of breast carcinoma PDX MaCa4151 in mice; type: in vivo, NMRI nu/nu mice (human PDX)
Experimental: In vivo studies were conducted at EPO GmbH Berlin. Large studies (FIG. 1A, 2, 3, 4, 5) comprised 3 groups of 10 mice/group and 5 animals as reserve, as outlined in Table 1. Smaller studies (FIG. 1B, 1C, 1D) comprised 2 groups of mice of 3 mice per group. The animals were allocated to the various treatment groups (e.g. 0.2 μg/kg and 30 μg/kg) with a maximum of 10 animals per group. […] The groups received subcutaneous (s.c.) drug injection (for max. 28 days) as outlined in the Table 1.
NMRI nu/nu mice were used in this study. The animals were female at age of 6 to 8 weeks. The respective PDX tumors were inoculated subcutaneously (s.c.), and the tumors were grown to achieve palpable tumor sizes before start of the respective treatments. The PDX included breast (MaCa4151), colon (Co9689A), head & neck (HN10309), lung (Lu7433) and ovarian (OvCa13329) cancer (Table 2).
Treatment with KcAng(1-7) was started with palpable tumors after the randomization of animals regarding tumor volume. KcAng(1-7) was applied s.c. by daily injections at […] or 30 μg/kg dose for a maximum of 28 days (or earlier as defined by the humane end point for the study).
KcAng(1-7) was prepared as follows: The compounds was suspended in sterile PBS resulting in a clear solution. The remains of this formulation were stored at 4° C.
Tumor growth stimulatory or inhibitory activity of the KcAng(1-7) was evaluated by determination of tumor volumes (TV). During the study, tumor volumes and body weight were measured twice a week, and the ratio of the mean tumor volumes between the compound-treated group and the vehicle-treated group (T/C) was calculated.
Tumor volume=(tumor width)×(tumor width)×(tumor length)+2
T/C=T÷C • T: Mean estimated tumor volume of the compound-treated group • C: Mean estimated tumor volume of the vehicle-treated group

U251MG glioblastoma CDX = test: Tumor hemoglobin level (indirect angiogenesis) in U251MG CDX; type: in vivo, cd1 nu/nu mice (human GBM cell line); conditions: KcAng(1-7) 1 μg/kg/d, Losartan 20 mg/kg/d, or both
Experimental: Efficacy of treatment was evaluated by: […] In brief, tumors were homogenized in double-distilled water. Eighty microliters of homogenates were mixed with 1 mL of Drabkin's solution and incubated for 15 min at room temperature. After centrifugation at 400×g for 5 min, the supernatants were subjected to absorbance measurement at 540 nm. The absorption, which is proportional to hemoglobin concentration, was divided by tumor weight. Effect of KcAng(1-7) and Losartan against heterotopic U251MG cell culture-based xenografts (CDX) in mice. Animals were treated either with vehicle, treated with 20 mg/kg/d Losartan, treated with 1 μ[…](1-7) or treated with a combination of KcAng(1-7) and with Losartan.

[2] = Gr. B 0.2 μg/kg/d s.c., Day 21 (Meas. 1)
[3] = Gr. B 0.2 μg/kg/d s.c., Day 23 (Meas. 2)
[4] = Gr. B 0.2 μg/kg/d s.c., Day 26 (Meas. 3)
[5] = Gr. B 0.2 μg/kg/d s.c., Day 29 (Meas. 4)
[6] = Gr. B 0.2 μg/kg/d s.c., Day 34 (Meas. 5)
[7] = Gr. B 0.2 μg/kg/d s.c., Day 37 (Meas. 6)
[8] = Gr. C 30 μg/kg/d s.c., Day 21 (Meas. 1)
[9] = Gr. C 30 μg/kg/d s.c., Day 23 (Meas. 2)
[10] = Gr. C 30 μg/kg/d s.c., Day 26 (Meas. 3)
[11] = Gr. C 30 μg/kg/d s.c., Day 29 (Meas. 4)
[12] = Gr. C 30 μg/kg/d s.c., Day 34 (Meas. 5)
[13] = Gr. C 30 μg/kg/d s.c., Day 37 (Meas. 6)

Lys-Asp-Arg-Val-Abu/Ala-Ile-His-Abu/Ala (KDRVAIHA; not fully specified; cyclic thioether (Abu/Ala bridge); VARIANT (5)..(5) /replace=“Abu”; VARIANT (8)..(8) /replace=“Abu”; SITE (1)..(8) /note=“Variant residues given in the sequence have no preference with respect to those in the annotations for variant positions”) [KcAng(1-7)]
effect on tumor growth ([1]; 0.2 and 30 μg/kg, 17 days): did not resulted in an increase of tumor growth or reduced tumor growth | RTV Mean [1, 2]: 1 | RTV Median [1, 2]: 1 | T/C [1, 2]: 95.7% | Tumor Vol. Mean [1, 2]: 0.163 cm^3 | Tumor Vol. Median [1, 2]: 0.131 cm^3 | RTV Mean [1, 3]: 1.7 | RTV Median [1, 3]: 1.6 | T/C [1, 3]: 105.2% | Tumor Vol. Mean [1, 3]: 0.281 cm^3 | Tumor Vol. Median [1, 3]: 0.241 cm^3 | RTV Mean [1, 4]: 2.4 | RTV Median [1, 4]: 2.2 | T/C [1, 4]: 118.4% | Tumor Vol. Mean [1, 4]: 0.392 cm^3 | Tumor Vol. Median [1, 4]: 0.368 cm^3 | RTV Mean [1, 5]: 3.4 | RTV Median [1, 5]: 3.2 | T/C [1, 5]: 104.9% | Tumor Vol. Mean [1, 5]: 0.55 cm^3 | Tumor Vol. Median [1, 5]: 0.491 cm^3 | RTV Mean [1, 6]: 6.2 | RTV Median [1, 6]: 5.2 | T/C [1, 6]: 120.2% | Tumor Vol. Mean [1, 6]: 0.995 cm^3 | Tumor Vol. Median [1, 6]: 1.021 cm^3 | RTV Mean [1, 7]: 10.5 | RTV Median [1, 7]: 7.6 | T/C [1, 7]: 137% | Tumor Vol. Mean [1, 7]: 1.607 cm^3 | Tumor Vol. Median [1, 7]: 1.452 cm^3 | RTV Mean [1, 8]: 1 | RTV Median [1, 8]: 1 | T/C [1, 8]: 94.8% | Tumor Vol. Mean [1, 8]: 0.162 cm^3 | Tumor Vol. Median [1, 8]: 0.157 cm^3 | RTV Mean [1, 9]: 1.5 | RTV Median [1, 9]: 1.5 | T/C [1, 9]: 92.6% | Tumor Vol. Mean [1, 9]: 0.248 cm^3 | Tumor Vol. Median [1, 9]: 0.165 cm^3 | RTV Mean [1, 10]: 2.4 | RTV Median [1, 10]: 2.5 | T/C [1, 10]: 122.3% | Tumor Vol. Mean [1, 10]: 0.405 cm^3 | Tumor Vol. Median [1, 10]: 0.383 cm^3 | RTV Mean [1, 11]: 4 | RTV Median [1, 11]: 4 | T/C [1, 11]: 125% | Tumor Vol. Mean [1, 11]: 0.655 cm^3 | Tumor Vol. Median [1, 11]: 0.671 cm^3 | RTV Mean [1, 12]: 6.8 | RTV Median [1, 12]: 6.5 | T/C [1, 12]: 130.6% | Tumor Vol. Mean [1, 12]: 1.081 cm^3 | Tumor Vol. Median [1, 12]: 1.072 cm^3 | RTV Mean [1, 13]: 9.8 | RTV Median [1, 13]: 9.1 | T/C [1, 13]: 131.2% | Tumor Vol. Mean [1, 13]: 1.539 cm^3 | Tumor Vol. Median [1, 13]: 1.522 cm^3 | Tumor hemoglobin level, mean (± SEM) (U251MG glioblastoma CDX): 18.7 ± 2.1 mg Hb/g of tissue
